In US9216181B2 (Southwest Research Institute, priority 2011, dated 2015):

Tests used:
BMP2 = assay: Quantitative PCR (TaqMan, ΔΔCt) of BMP2 in human mesenchymal stem cells; type: cell-based; settings: Homo sapiens, Mesenchymal stem cells; BMP2 mRNA, hMSC, 10 μM, vs untreated, 18S reference; positive control compounds (Table 1); read-out: q-PCR Fold increase
BMP-2 [1] = assay: BMP-2 fold change of JHU library compounds, confirmed by qPCR; type: cell-based, human; settings: non-treated = 1.00
Description: To further verify the technique, a 2T3 mouse pre-osteoblast cell line derived from calvaria courtesy of Dr. Steve Harris, UTHSCSA, was utilized to visually screen the compounds of the BIOMOL library and JHU libraries, purchased from John Hopkins University including 2387 compounds (solution in wells). Specifically, Murine 2T3 were thawed from one frozen cryovial and re-seeded into two T-75 tissue culture flasks grown in Alpha MEM with 10% FBS, Glutamine, and Pen/Strip antibiotics. Cells were incubated in a humidified 37° C. under 5% CO2 for 48 hours or when cells reached 80% confluence. After reaching confluency, the 2T3 were trypsinized and resuspended in pre-warm growth media to a cell density of 5×10^4 cells/mL. Approximately 100 uL of cell suspension was seeded to a 96 well plate to give a final 5,000 cells per well. Plate was incubated overnight at 37° C. and spent media was aspirated and replace with 100 uL of growth media with 5-10 uM of presumptive drug compounds. A set of controls were untreated and treated with 10 uM of Lovastatin to be used as a visual reference morphological screening.
Human mesenchymal stem cells (LONZA, Catalog PT2501) were maintained in Mesenchymal stem cells basal media (MSCBM CAT#PT-3238). Early passage cells were plated in triplicate at 2×10^4 cells/cm^2 using six well tissue culture plates and grown in humidified 5% CO2 at 37° C. for 24 hours. Spent media was replaced by assay media of drugs to be tested in same media as above at 10 μM final concentration. Untreated cells were used as the control group. […] RNA concentration and integrity was assessed by absorbance 260/280 and electrophoresis in 1% Agarose with formaldehyde loading dye. For TaqMan gene expression, cDNA was synthesized from 2 μg of total RNA using the High Capacity cDNA Reverse Transcription Kit (Applied Biosystems, Cat. 4368814). The resulting cDNA were diluted 1:100 for TaqMan and amplified by real-time quantitative PCR. […] A cocktail of universal master mix (Applied Biosystems, 4369016) were prepared individually for both set of primers which contained Taq Polymerase, dNTPs, and buffer. Template cDNA's were added separately to respective individual wells in triplicate samples. The PCR were performed on StepOne Plus Real Time System instrument (Applied Biosystems). The amplification program consisted of 1 cycle of 95° C. with 10 minute hold (hot start) followed by 50 cycles of 95° C. with 15 second annealing hold and 1 minute 60° C. specified acquisition hold. […] Change in gene expression was determined by the expression ΔΔCt relative method.
Included in the tables is the target or common medical use for each compounds.

BMP-2 [2] = assay: Real time PCR of BMP-2 gene expression in human MSC (Cells-to-Ct); type: cell-based; settings: BMP-2 mRNA, hMSC, 5-10 μM, 24 hours, vs untreated; positive control compounds (Table 1)
C3H10T1/2 cells = assay: Visual observation of morphological differentiation of C3H10T1/2 MSC; type: cell-based, mouse; settings: enhanced medium withdrawn before addition
Procedure: The C3H10T1/2 cells were grown in an enhanced growth medium of BGjb (Irvine Scientific, Santa Ana, Calif.).

**Q.** For `CC[C@H](C)C(=O)O[C@H]1C[C@@H](C)C=C2C=C[C@H](C)[C@H](CC[C@@H]3C[C@@H](O)CC(=O)O3)[C@H]21` [Lovastatin], which fold induction at 10 µM (BMP2) is on record?
**A.** 10.7

**Q.** And the fold induction at 10 µM (BMP-2 [1]; Homo sapiens, read-out: Fold change (BMP-2), control compounds at 10 μM)?
**A.** 18

**Q.** And the “Fold change (BMP-2)” value (BMP-2 [1]; JHU library compounds)?
**A.** 182.00 fold

**Q.** What about the “RT PCR Fold increase” value (BMP-2 [2]) of the same compound?
**A.** 59.9 fold

**Q.** And the “morphological changes by visual observation” value (C3H10T1/2 cells)?
**A.** generated more elongated looking cells with slowed cell proliferation
